Measured values published in patent publication US9102591B2, “Benzamides” (H. Lundbeck A/S, priority 2012, dated 2015).

target: P2X7 receptor (Homo sapiens (Human), UniProt Q99572); test: P2X7 FLIPR assay (BzATP-stimulated calcium fluorescence, antagonist IC50); type: cell-based; details: not given
Description: This example illustrates representative assays for use in evaluating the test compounds for antagonist activity. Compounds of the present invention were tested in vitro for their ability to act as antagonists to the P2X7receptor. […]
Cells were plated to cell density of approximately 15,000 cells/well in 384-well assay plates (50 μl/well) with 1.5% low serum media (DMEM, 1.5% FBS, 1% L-glut (2 mM), 10 mM HUES, 1% P/S). Cells were plated 24 hours prior to assay. Cells expressing human, rat or mouse P2X7 receptor were assayed in the following manner.
Fluo-4 NW dye mix (Molecular Probes, Inc., Eugene, Oreg., USA) was prepared in buffer (see manufacturer's instructions). Cell plates were removed from the 37° C. incubator, the media discarded and then 30 μL of dye was added to each well. Plates were placed in the 37° C., non-CO2 incubator for 30 minutes and then room temperature for 30 minutes.
Compound mixtures (A) were added to assay plates containing cells and placed at room temperature for 30 minutes, then BzATP (B) was added. Fluorescence was read using the Tetra FLIPR® (Molecular Devices, Inc., Sunnyvale, Calif., USA) and IC50 values were calculated by standard methods to determine antagonist activity.

P2X7 receptor, sequence (Q99572 whole entry): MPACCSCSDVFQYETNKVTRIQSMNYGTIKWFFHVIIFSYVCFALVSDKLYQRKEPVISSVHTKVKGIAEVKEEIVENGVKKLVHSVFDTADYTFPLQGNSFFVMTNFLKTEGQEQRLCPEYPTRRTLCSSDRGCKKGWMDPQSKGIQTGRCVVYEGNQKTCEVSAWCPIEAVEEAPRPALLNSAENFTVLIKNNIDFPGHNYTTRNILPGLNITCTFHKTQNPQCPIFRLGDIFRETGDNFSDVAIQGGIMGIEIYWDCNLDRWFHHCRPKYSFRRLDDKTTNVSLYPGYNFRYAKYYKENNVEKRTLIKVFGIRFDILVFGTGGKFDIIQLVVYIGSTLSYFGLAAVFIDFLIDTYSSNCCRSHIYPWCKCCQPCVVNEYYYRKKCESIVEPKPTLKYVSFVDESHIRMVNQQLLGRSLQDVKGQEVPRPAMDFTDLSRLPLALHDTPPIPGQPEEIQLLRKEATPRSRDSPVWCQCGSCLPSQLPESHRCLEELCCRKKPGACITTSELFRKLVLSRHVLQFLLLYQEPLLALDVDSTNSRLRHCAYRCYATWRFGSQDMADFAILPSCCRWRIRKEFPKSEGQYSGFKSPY

Structure (SMILES) | IC50 [nM]
O=C(NCC1(c2ccc(C(F)(F)F)cc2)CCOCC1)c1cccc(Cl)c1Cl | 41
Cc1ccc(C2(CNC(=O)c3cccc(Cl)c3Cl)CCC(F)(F)CC2)cn1 | 7.3
COc1cccc(C(=O)NCC2(c3ccc(F)nc3)CCC(F)(F)CC2)c1F | 100
O=C(NC[C@H](c1cnc(C(F)(F)F)nc1)C1CCOCC1)c1cccc(Cl)c1Cl (single isomer, unassigned) [(+)2,3-dichloro-N-[2-tetrahydropyran-4-yl-2-[2-trifluoromethyl)pyrimidin-5-yl]ethyl]benzamide] | 4.1
Cc1ncc(C(CNC(=O)c2cccc(Cl)c2Cl)C2CCOCC2)cn1 (single isomer, unassigned; (+)) [(+)2,3-dichloro-N-[2-(2-methylpyrimidin-5-yl)-2-tetrahydropy] [(+)2,3-dichloro-N-[2-(2-methylpyrimidin-5-yl)-2-tetrahydropyran-4-yl-ethyl]benzamide] | 28
Cc1ncc(C(CNC(=O)c2cccc(Cl)c2Cl)CC2(C(F)(F)F)CC2)cn1 (single isomer, unassigned; (+)) [(+)2,3-dichloro-N-[2-(2-methylpyrimidin-5-yl)-3-[1-(trifluor] [(+)2,3-dichloro-N-[2-(2-methylpyrimidin-5-yl)-3-[1-(trifluoromethyl)cyclopropyl]propyl]benzamide] | 1.5
O=C(NCC(c1cnc(C(F)(F)F)nc1)C1CCC(F)(F)CC1)c1cccc(Cl)c1Cl (single isomer, unassigned; (+)) [(+)2,3-dichloro-N-[2-(4,4-difluorocyclohexyl)-2-[2-(trifluor] [(+)2,3-dichloro-N-[2-(4,4-difluorocyclohexyl)-2-[2-(trifluoromethyl)pyrimidin-5-yl]ethyl]benzamide] | 5.7
O=C(NCC(c1ccc(F)cc1)c1cnc(C(F)(F)F)nc1)c1cccc(Cl)c1Cl (single isomer, unassigned; (+)) [(+)2,3-dichloro-N-[2-(4-fluorophenyl)-2-[2-(trifluoromethyl)] [(+)2,3-dichloro-N-[2-(4-fluorophenyl)-2-[2-(trifluoromethyl)pyrimidin-5-yl]ethyl]benzamide] | 1.1
O=C(NCC(c1ccc(F)cc1)c1ccc(C(F)(F)F)nc1)c1cccc(Cl)c1Cl (single isomer, unassigned; (+)) [(+)2,3-dichloro-N-[2-(4-fluorophenyl)-2-[6-(trifluoromethyl)] [(+)2,3-dichloro-N-[2-(4-fluorophenyl)-2-[6-(trifluoromethyl)-3-pyridyl]ethyl]benzamide] | 12
O=C(NCC(CC1(C(F)(F)F)CC1)c1cnc(C(F)(F)F)nc1)c1cccc(Cl)c1Cl (single isomer, unassigned; (+)) [(+)2,3-dichloro-N-[3-[1-(trifluoromethyl)cyclopropyl]-2-[2-(] [(+)2,3-dichloro-N-[3-[1-(trifluoromethyl)cyclopropyl]-2-[2-(trifluoromethyl)pyrimidin-5-yl]propyl]benzamide] | 1.6
O=C(NCC(CC1(C(F)(F)F)CC1)c1ccc(C(F)(F)F)nc1)c1cccc(Cl)c1Cl (single isomer, unassigned; (+)) [(+)2,3-dichloro-N-[3-[1-(trifluoromethyl)cyclopropyl]-2-[6-(] [(+)2,3-dichloro-N-[3-[1-(trifluoromethyl)cyclopropyl]-2-[6-(trifluoromethyl)-3-pyridyl]propyl]benzamide] | 12
O=C(NCC(CC1CC1)c1cnc(C(F)F)nc1)c1cccc(Cl)c1Cl (single isomer, unassigned; (+)) [(+)2,3-dichloro-N-[3-cyclopropyl-2-[2-(difluoromethyl)pyrimi] [(+)2,3-dichloro-N-[3-cyclopropyl-2-[2-(difluoromethyl)pyrimidin-5-yl]propyl]benzamide] | 23
O=C(NCC(CC1CC1)c1cnc(C(F)(F)F)nc1)c1cccc(Cl)c1Cl (single isomer, unassigned; (+)) [(+)2,3-dichloro-N-[3-cyclopropyl-2-[2-(trifluoromethyl)pyrim] [(+)2,3-dichloro-N-[3-cyclopropyl-2-[2-(trifluoromethyl)pyrimidin-5-yl]propyl]benzamide] | 3.9
CC(C)(O)c1ccc(C(CNC(=O)c2cccc(Cl)c2Cl)CC2CC2)cn1 (single isomer, unassigned; (+)) [(+)2,3-dichloro-N-[3-cyclopropyl-2-[6-(1-hydroxy-1-methyl-et] [(+)2,3-dichloro-N-[3-cyclopropyl-2-[6-(1-hydroxy-1-methyl-ethyl)-3-pyridyl]propyl]benzamide] | 740
O=C(NCC(CC1CC1)c1ccc(C(F)F)nc1)c1cccc(Cl)c1Cl (single isomer, unassigned; (+)) [(+)2,3-dichloro-N-[3-cyclopropyl-2-[6-(difluoromethyl)-3-pyridyl]propyl]benzamide] | 24
O=C(NCC(CC1CC1)c1ccc(C(F)(F)F)nc1)c1cccc(Cl)c1Cl (single isomer, unassigned; (+)) [(+)2,3-dichloro-N-[3-cyclopropyl-2-[6-(trifluoromethyl)-3-py] [(+)2,3-dichloro-N-[3-cyclopropyl-2-[6-(trifluoromethyl)-3-pyridyl]propyl]benzamide] | 2.6
CC(CNC(=O)c1cccc(Cl)c1Cl)(CC1CC1)c1cnc(C(F)(F)F)nc1 (single isomer, unassigned; (+)) [(+)2,3-dichloro-N-[3-cyclopropyl-2-methyl-2-[2-(trifluoromethyl)pyrimidin-5-yl]propyl]benzamide] | 74
O=C(NCC(c1ccccc1)c1ccc(C(F)(F)F)nc1)c1c(Cl)cccc1Cl (single isomer, unassigned; (+)) [(+)2,6-dichloro-N-[2-phenyl-2-[6-(trifluoromethyl)-3-pyridyl] [(+)2,6-dichloro-N-[2-phenyl-2-[6-(trifluoromethyl)-3-pyridyl]ethyl]benzamide] | 12
Cc1ncc(C(CNC(=O)c2c(Cl)cccc2Cl)CC2CC2)cn1 (single isomer, unassigned; (+)) [(+)2,6-dichloro-N-[3-cyclopropyl-2-(2-methylpyrimidin-5-yl)p] [(+)2,6-dichloro-N-[3-cyclopropyl-2-(2-methylpyrimidin-5-yl)propyl]benzamide] | 220
O=C(NCC(CC1CC1)c1cnc(C(F)(F)F)nc1)c1c(Cl)cccc1Cl (single isomer, unassigned; (+)) [(+)2,6-dichloro-N-[3-cyclopropyl-2-[2-(trifluoromethyl)pyrim] [(+)2,6-dichloro-N-[3-cyclopropyl-2-[2-(trifluoromethyl)pyrimidin-5-yl]propyl]benzamide] | 3.8
O=C(NCC(CC1CC1)c1ccc(C(F)(F)F)nc1)c1c(Cl)cccc1Cl (single isomer, unassigned; (+)) [(+)2,6-dichloro-N-[3-cyclopropyl-2-[6-(trifluoromethyl)-3-py] [(+)2,6-dichloro-N-[3-cyclopropyl-2-[6-(trifluoromethyl)-3-pyridyl]propyl]benzamide] | 0.89
O=C(NCC(c1ccc(F)cc1)c1cnc(C(F)(F)F)nc1)c1cccc(F)c1Cl (single isomer, unassigned; (+)) [(+)2-chloro-3-fluoro-N-[2-(4-fluorophenyl)-2-[2-(trifluorome] [(+)2-chloro-3-fluoro-N-[2-(4-fluorophenyl)-2-[2-(trifluoromethyl)pyrimidin-5-yl]ethyl]benzamide] | 4.8
O=C(NCC(c1ccc(F)cc1)c1ccc(C(F)(F)F)nc1)c1cccc(F)c1Cl (single isomer, unassigned; (+)) [(+)2-chloro-3-fluoro-N-[2-(4-fluorophenyl)-2-[6-(trifluorome] [(+)2-chloro-3-fluoro-N-[2-(4-fluorophenyl)-2-[6-(trifluoromethyl)-3-pyridyl]ethyl]benzamide] | 4.6
O=C(NCC(c1cnc(C(F)(F)F)nc1)C1CCOCC1)c1cccc(F)c1Cl (single isomer, unassigned; (+)) [(+)2-chloro-3-fluoro-N-[2-tetrahydropyran-4-yl-2-[2-(trifluo] [(+)2-chloro-3-fluoro-N-[2-tetrahydropyran-4-yl-2-[2-(trifluoromethyl)pyrimidin-5-yl]ethyl]benzamide] | 32
O=C(NCC(CC1(C(F)(F)F)CC1)c1cnc(C(F)(F)F)nc1)c1cccc(F)c1Cl (single isomer, unassigned; (+)) [(+)2-chloro-3-fluoro-N-[3-[1-(trifluoromethyl)cyclopropyl]-2] [(+)2-chloro-3-fluoro-N-[3-[1-(trifluoromethyl)cyclopropyl]-2-[2-(trifluoromethyl)pyrimidin-5-yl]propyl]benzamide] | 4.5

same assay, conditions: listed as (+)N-[3-cyclopropyl-2-[6-(trifluoromethyl)-3-pyridyl]propyl]-2-methoxy-benzamide

Structure (SMILES) | IC50 [nM]
COc1ccccc1C(=O)NCC(CC1CC1)c1ccc(C(F)(F)F)nc1 (single isomer, unassigned) [Example 4p, (+)—N-(3-cyclopropyl-2-(6-(trifluoromethyl)pyridin-3-yl)propyl)-2-methoxybenzamide] | 990

same assay, conditions: listed as (−)N-[3-cyclopropyl-2-[6-(trifluoromethyl)-3-pyridyl]propyl]-2-methoxy-benzamide

Structure (SMILES) | IC50 [nM]
COc1ccccc1C(=O)NCC(CC1CC1)c1ccc(C(F)(F)F)nc1 (single isomer, unassigned) [Example 4o, (−)—N-(3-cyclopropyl-2-(6-(trifluoromethyl)pyridin-3-yl)propyl)-2-methoxybenzamide] | 53
